Experimental data: patent publication US5705662A, “17-(3-imino-2-alkylpropenyl)-5β, 14β-androstane derivatives active on the cardiovascular system, processes for their preparation and pharmaceutical compositions containing same” (Sigma-Tau Industrie Farmaceutiche Riunite S.p.A., priority 1994, dated 1998)

Columns and labels:
Na^+,K^+ -ATPase [1] = conditions: J. Med. Chem. 1978, 21, 284; Quant. Struct.-Act. Relat. 1988, 7, 160; DE 4,227,605; DE 4,227,626; cited from earlier work
[2] = J. Med. Chem. 1978, 21, 284; Quant. Struct.-Act. Relat. 1988, 7, 160; cited from earlier work
[3] = tested on: spontaneous hypertensive rats (MHS); assay: effect of 5 week-treatment on the development of hypertension in MHS rats (SBP and HR, tail cuff method); format: in vivo, rat (MHS); conditions: 10 mg/Kg/os daily in Methocel 0.5% w/v, 5 weeks, controls 171 +/- 4.5
Procedure: (§1) Systolic blood pressure (SBP) and heart rate (HR) were measured. by the tail cuff method, in young prehypertensive male rats (MHS or SHR) strains before the development of hypertension (4 weeks of age) for recording the basal values of SBP. Groups of 7 rats were formed and subdivided in control and treated groups. The compound, suspended in Methocel 0.5 % (w/v). was orally given daily for at least 5 weeks to the treated groups. The control group received only Methocel.
(§2) SBP and HR were measured weekly 6 and 24 hrs after treatment. After 5 weeks of treatment, when hypertension was fully developed in the control group (9 weeks of age), washout was started for at least one week, to verify whether the treatment maintained blood pressure low or reestablished the basal values. […] (Takeda K. et al., Japan J. Pharmacol., 1979, 29,171: Takeda K. et al. Japan J. Pharmacol., 1982, 32, 283; Richer C. et al. Eur. J. Pharmacol, 1978, 47,393).

[4] = as above; format: in vivo, rat (MHS); conditions: 10 mg/Kg/os daily in Methocel 0.5% w/v, 5 weeks, controls 375 +/- 7.3
Procedure: as §1, §2

Na^+,K^+ -ATPase [5] = target: T1, Na^+,K^+ -ATPase (Canis lupus familiaris, UniProt P50997); assay: displacement of the specific 3H-ouabain binding from the purified Na+,K+-ATPase receptor; conditions: 3H-ouabain displacement, purified Na+,K+-ATPase; read-out: Binding ^3 H-Ouab. Displacement log IC50 (converted)
T1 construct: Na^+,K^+ -ATPase receptor purified according to Jorghensen; from tissue
Text: (§3) To test the affinity for the receptor site of the Na^+,K^+ -ATPase and the agonist or antagonist activity on the enzyme, the following tests were used:
a) displacement of the specific ^3 H-ouabain binding from the Na^+,K^+ -ATPase receptor purified according to Jorghensen (Jorghensen P., BBA. 1974, 356, 36) and Erdmann (Erdmann E. et al., Arzneim. Forsh., 1984, 34, 1314);

Na^+,K^+ -ATPase [6] = target: T1, Na^+,K^+ -ATPase; assay: inhibition of the activity of the purified Na+,K+-ATPase (% hydrolysis of 32P-ATP); format: biochemical; conditions: purified Na+,K+-ATPase, 32P-ATP hydrolysis; read-out: Inhibitory Activity log IC50 (converted)
Text: as §3
b) inhibition of the activity of the purified Na^+,K^+ -ATPase measured as % of hydrolysis of ^32 P-ATP in presence and in absence of the tested compound (Doucet A. et al. Am. J. Physiol., 1986, 251, F851)

SMILES | inhibition of Na+,K+-ATPase (in words) (Na^+,K^+ -ATPase [1]) | positive inotropic activity (in words) [2] | SBP [3] | HR [4] | IC50 (Na^+,K^+ -ATPase [5]) [nM] | IC50 (Na^+,K^+ -ATPase [6]) [nM]
C[C@]12CC[C@H](O)C[C@H]1CC[C@@H]1[C@@H]2CC[C@]2(C)[C@@H](C=NNC(=N)N)CC[C@]12O [17β-guanidinoiminomethyl-5β-androstane-3β,14β-diol] | weak inhibitors of Na^+,K^+ -ATPase | weak positive inotropic agents |  |  |  | 
CC(/C=N/NC(=N)N)=C\[C@H]1CC[C@]2(O)[C@@H]3CC[C@@H]4C[C@@H](O)CC[C@]4(C)[C@H]3CC[C@]12C [Comp. I-aa, (E,E)-17β-(3-Guanidinoimino-2-methyl-1-propenyl)-5β-androstane-3β,14β-diol] |  |  | 148 +/- 5.7 mm Hg | 374 +/- 9.5 beats/min. | 31.6 | 251
CC(/C=N/OCCN)=C\[C@H]1CC[C@]2(O)[C@@H]3CC[C@@H]4C[C@@H](O)CC[C@]4(C)[C@H]3CC[C@]12C [Comp. I-af, (E,E)-17β-[3-(2-Aminoethoxyimino)-2-methyl-1-propenyl]-5β-androstone-3β,14β-diol] |  |  | 146 +/- 6.1 mm Hg | 380 +/- 3.9 beats/min. | 20 | 31.6
